Measured values taken from article PMC8290022, “Electrophysiological characterization of a diverse group of sugar transporters from Trichoderma reesei” (Scientific Reports, 2021).

target: T1, STR3 (Trire2_62380) (Trichoderma reesei, UniProt G0RKF0); assay: two-electrode voltage clamp in Xenopus oocytes, transport current; assay type: cell-based; conditions: pH 5.5, -50 mV, H+ symport
T1 construct: gene TRIREDRAFT_62380
T1 sequence (G0RKF0 entry or part of it): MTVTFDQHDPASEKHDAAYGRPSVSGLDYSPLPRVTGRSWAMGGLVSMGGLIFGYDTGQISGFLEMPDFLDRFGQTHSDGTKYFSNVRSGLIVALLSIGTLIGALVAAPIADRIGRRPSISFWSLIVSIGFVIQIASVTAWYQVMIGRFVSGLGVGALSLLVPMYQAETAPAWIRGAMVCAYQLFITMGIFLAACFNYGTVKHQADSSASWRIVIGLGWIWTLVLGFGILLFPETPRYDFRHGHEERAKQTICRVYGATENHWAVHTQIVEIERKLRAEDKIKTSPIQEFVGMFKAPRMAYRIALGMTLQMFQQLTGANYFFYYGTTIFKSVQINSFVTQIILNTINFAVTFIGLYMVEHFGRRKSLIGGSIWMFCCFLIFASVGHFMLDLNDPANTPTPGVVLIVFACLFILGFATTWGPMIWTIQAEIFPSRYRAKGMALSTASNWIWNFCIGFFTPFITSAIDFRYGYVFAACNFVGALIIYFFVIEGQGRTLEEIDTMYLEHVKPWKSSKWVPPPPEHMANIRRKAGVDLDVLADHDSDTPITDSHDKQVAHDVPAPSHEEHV

Point of comparison: `OC[C@H]1OC(O)[C@H](O)[C@@H](O)[C@H]1O` (stereo partly drawn) [D-galactose], Km 1110 ± 490 µM. Against it:
- OC[C@H]1OC(O)[C@H](O)[C@@H](O)[C@@H]1O (stereo partly drawn) [D-glucose] — 19-fold lower, 57.9 ± 17.7 µM
- OC[C@H]1OC(O)[C@@H](O)[C@@H](O)[C@@H]1O (stereo partly drawn) [D-mannose] — 6-fold lower, 186 ± 18.9 µM
